Assay [1] concerns male rats. In words: Erection episodes and Penile Erection Index (PEI) in male rats within 2 hours (according to EP 1057829 A1). The following applies: 10 rats. Format: in vivo. As to the method:
(§1) The purpose of the study was to compare the biological activity of the compositions of the present invention with that of sildenafil. In particular, the erection episodes and penile erection indexes of the compounds and compositions in the treatment of male rats and rabbits were determined.
(§2) Details on the determination of PEI values can be found in e.g. H.H. Ang and M.K. Sim, Effects of Eurycoma longifilia Jack on Penile Erection Indes and Homosexual Mounting in Rats, Pharmaceutical Sciences, 3 (1997), 117-19; and A. Benassi-Benelli, F. Ferrari and B. Pellegrini Quaratotti, Penile erection Induced by Apomorphine and N-n-propyl-norapomorphine in Rats, Arch. Int. Pharmacodyn 242 (1979), 241-247. The episode is a description for rat sucking their penus.
(§3) Rabbit experiments where performed according to E. Bischof and K. Schneider, "International Journal of Impotence Research", 13 (2001) 230 - 235, and rat experiments where performed according to EP 1057829 A1.
Further, the effect on penile length of rats was studied and the following results are given in table 2 for a compound disclosed in the invention and in table 3 for sildenafil. The penile length is indicative of the efficacy of the administered medicament.

Assay [2] relates to rabbits. In words: Penile erection index for rabbits in dependency on time (according to Bischof and Schneider). Format: in vivo. Details: penile erection index: scale not given here. As for the experimental part:
as §1, §2, §3
Studying the penile erection index for rabbits in dependency on time yields the results given in table 1 for sildenafil and the compound (III).

In the case of `CCCc1nn(C)c2c(=O)[nH]c(-c3cc(S(=O)(=O)N4CCN(C)CC4)ccc3OCC)nc12` [Sildenafil, sildenafil], the No. of episodes in assay [1] (dose 0.0781 mg/kg) is given as 3; in assay [1] (dose 0.1562 mg/kg), 5; in assay [1] (dose 0.3125 mg/kg), 7; in assay [1] (dose 0.6250 mg/kg), 14. Further, the PEI in assay [1] (dose 0.0781 mg/kg) is reported as 90; in assay [1] (dose 0.1562 mg/kg) it was 150; in assay [1] (dose 0.3125 mg/kg) it was 350; in assay [1] (dose 0.6250 mg/kg) it was 980. Also, in assay [2] (comparison of sildenafil, compound III and compositions), the “efficacy (penile erection index for rabbits), comparison in words” value is recorded as “greater efficacy than compounds III”. Further, the penile erection index worked out at 0 in assay [2] (time 0 min); 18.318 in assay [2] (time 5 min); 16.694 in assay [2] (time 10 min); 15.22 in assay [2] (time 15 min); 13.108 in assay [2] (time 20 min); 11.218 in assay [2] (time 30 min). Further, the values for the penile erection index in assay [2] (time 40 min) and in assay [2] (time 50 min) were 7.364 and 2.94, respectively.

The values above are taken from EP1460077B1, “Novel pyrazolopyrimidones and their use as PDE inhibitors” (The Jordanian Pharmaceutical Manufacturing Co. Ltd., priority 2003, dated 2004).
